Results reported in patent publication EP4790066A1, “GLP-1R/GIPR/GCGR TRIPLE AGONIST ANALOGUE AND USE THEREOF” (Shenzhen Bay Laboratory, priority 2023, dated 2025).
*1 amine or outer side, *2 acyl side, *3 side chain or, on linkers, in order; H or OH if unused. Where a SMILES comes first, the peptide text is derived from it. Bridges are numbered along the chain shown (N, C = ends). [ ]: non-standard residue; d: D form. X1 = O=C(O)CCCCCCCCCCCCCCCCCCC(=O)N[C@@H](CCCCNC(=O)COCCOCCNC(=O)COCCOCCNC(=O)CCC(=O)N(CCNC(=O)C[*:1])CCNC(=O)C[*:2])C(=O)O; Phe(2-F) = N[C@@H](Cc1ccccc1F)C(=O)O; αMeL = CC(C)C[C@](C)(N)C(=O)O; Iva = CC[C@](C)(N)C(=O)O; Aib = CC(C)(N)C(=O)O

How the values were obtained:
Assay type in all cases: cell-based
[1] = molecular target: T1, GLP-1R (Homo sapiens, UniProt P43220); assay: CreLuc method (CRE-luciferase reporter), HEK293/pGM-CREB-L-Luc/GLP-1R pool; settings: 6 h incubation, read-out: EC50 (pM) for each receptor GLP-1R
T1 construct: expressed in transfected cells
Protocol: (§1) 1. Insulinotropic analogues can bind to the target receptor on the cell membrane, activate the cAMP response element (CRE), and initiate the expression of downstream luciferase. The expression level is positively correlated with the biological activity of the analogue being tested. After activation, luciferase substrate is added for chemiluminescence detection, and the luminescence intensity is determined to characterize the biological activity of the test compounds. Therefore, the target peptide derivatives (or polypeptide derivatives, i.e., TG1-TG94) prepared in Example 1 and Example 2 can be tested by the CreLuc method. The specific steps are as follows: The stably transfected cell lines HEK293/pGM-CREB-L-Luc/GLP-1R pool, HEK293/pGM-CREB-L-Luc/GIPR pool, and 293HEK/pGM-CREB-L-Luc/GCGR pool were constructed. […] The corresponding test cells were digested (1 min), dispersed by pipetting, and centrifuged (1000 rpm, 5 min). The culture medium was discarded, and the cells were resuspended in freestyle medium, centrifuged again, collected, and counted. The cells were then diluted to a cell density of 5 x 10^5 cells/mL and then added to the detection wells of a 384-well plate (40 µL/20,000 cells/well). Echo was used to add the corresponding analyte dilution series. The cell plate was incubated at 37°C and 5% CO2 for 6 h, then ONE-GLO (20 µL/well) was added for detection. It was kept in the dark for 3 min, then a chemiluminescent microplate reader was used for determination. The plate was read within 30 min, and the determination results were recorded. […] Table 3: EC50 values for target peptide derivatives

[2] = molecular target: T2, GIPR (Homo sapiens, UniProt P48546); assay: CreLuc method (CRE-luciferase reporter), HEK293/pGM-CREB-L-Luc/GIPR pool; settings: 6 h incubation, read-out: EC50 (pM) for each receptor GIPR
T2 construct: expressed in transfected cells
T2 sequence (P48546 22-466): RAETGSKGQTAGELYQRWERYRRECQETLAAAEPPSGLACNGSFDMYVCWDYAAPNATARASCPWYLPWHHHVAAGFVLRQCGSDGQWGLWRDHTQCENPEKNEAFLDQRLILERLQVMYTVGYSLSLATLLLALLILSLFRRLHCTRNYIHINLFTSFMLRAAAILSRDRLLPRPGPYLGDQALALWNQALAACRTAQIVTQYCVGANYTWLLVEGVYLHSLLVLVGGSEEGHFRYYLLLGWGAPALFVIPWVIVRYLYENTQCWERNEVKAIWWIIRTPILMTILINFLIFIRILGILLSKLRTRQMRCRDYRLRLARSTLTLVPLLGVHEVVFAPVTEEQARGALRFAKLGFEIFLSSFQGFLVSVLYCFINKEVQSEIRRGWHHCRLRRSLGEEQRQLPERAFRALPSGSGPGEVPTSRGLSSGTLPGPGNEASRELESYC
Protocol: as §1

[3] = molecular target: T3, GCGR (Homo sapiens, UniProt P47871); assay: CreLuc method (CRE-luciferase reporter), 293HEK/pGM-CREB-L-Luc/GCGR pool; settings: 6 h incubation, read-out: EC50 (pM) for each receptor GCGR
T3 construct: expressed in transfected cells
Protocol: as §1

T3 sequence (P47871 26-477, species assumed): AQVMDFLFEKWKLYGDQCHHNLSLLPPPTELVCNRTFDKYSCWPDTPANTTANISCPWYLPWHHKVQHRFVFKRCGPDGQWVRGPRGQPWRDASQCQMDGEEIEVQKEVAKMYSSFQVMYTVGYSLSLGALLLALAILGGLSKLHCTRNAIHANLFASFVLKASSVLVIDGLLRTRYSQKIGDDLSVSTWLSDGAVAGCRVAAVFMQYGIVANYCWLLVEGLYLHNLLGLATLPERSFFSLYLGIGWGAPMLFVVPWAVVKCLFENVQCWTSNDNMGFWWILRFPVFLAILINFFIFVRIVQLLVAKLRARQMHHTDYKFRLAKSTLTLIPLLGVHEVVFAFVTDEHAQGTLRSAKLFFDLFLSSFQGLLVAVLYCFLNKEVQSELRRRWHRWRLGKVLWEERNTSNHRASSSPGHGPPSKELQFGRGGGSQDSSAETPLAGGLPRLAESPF
T1 sequence (P43220 24-463, species assumed): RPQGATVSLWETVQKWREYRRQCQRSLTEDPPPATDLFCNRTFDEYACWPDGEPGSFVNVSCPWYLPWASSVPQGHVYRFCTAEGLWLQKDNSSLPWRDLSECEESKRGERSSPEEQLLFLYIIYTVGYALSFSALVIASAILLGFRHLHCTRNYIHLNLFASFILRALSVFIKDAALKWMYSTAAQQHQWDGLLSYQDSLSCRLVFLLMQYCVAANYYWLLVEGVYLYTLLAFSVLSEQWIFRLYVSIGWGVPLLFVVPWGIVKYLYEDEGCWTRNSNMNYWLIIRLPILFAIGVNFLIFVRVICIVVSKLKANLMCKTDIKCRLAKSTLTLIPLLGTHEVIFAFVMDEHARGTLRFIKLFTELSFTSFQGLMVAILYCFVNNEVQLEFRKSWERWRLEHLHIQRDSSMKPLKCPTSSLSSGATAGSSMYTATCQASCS

Structure (SMILES) | EC50 [1] [pM] | EC50 [2] [pM] | EC50 [3] [pM]
CC[C@H](C)[C@@H]1NC(=O)[C@H](Cc2ccccc2)NC(=O)[C@@H](NC(=O)C(C)(C)NC(=O)[C@H](CCC(N)=O)NC(=O)[C@H](C)NC(=O)[C@H](CCCCNC(C)=O)NC(=O)[C@H](CCCCN)NC(=O)[C@H](CC(=O)O)NC(=O)[C@H](CC(C)C)NC(=O)[C@](C)(CC(C)C)NC(=O)[C@@H](NC(=O)[C@H](CO)NC(=O)[C@H](Cc2ccc(O)cc2)NC(=O)[C@H](CC(=O)O)NC(=O)[C@H](CO)NC(=O)[C@@H](NC(=O)[C@](C)(Cc2ccccc2)NC(=O)[C@@H](NC(=O)CNC(=O)[C@H](CCC(N)=O)NC(=O)C(C)(C)NC(=O)[C@@H](N)Cc2ccc(O)cc2)[C@@H](C)O)[C@@H](C)O)[C@@H](C)CC)CSCC(=O)NCCN(C(=O)CCC(=O)NCCOCCOCC(=O)NCCOCCOCC(=O)NCCCC[C@H](NC(=O)CCCCCCCCCCCCCCCCCCC(=O)O)C(=O)O)CCNC(=O)CSC[C@@H](C(=O)NCC(=O)NCC(=O)N2CCC[C@H]2C(=O)N[C@@H](CO)C(=O)N[C@@H](CO)C(=O)NCC(=O)N[C@@H](C)C(=O)N2CCC[C@H]2C(=O)N2CCC[C@H]2C(=O)N2CCC[C@H]2C(=O)N[C@@H](CO)C(N)=O)NC(=O)[C@H](CC(C)C)NC(=O)[C@H](CC(C)C)NC(=O)[C@H](Cc2ccc(O)cc2)NC(=O)[C@H](CCC(=O)O)NC1=O [TG23] | 92.9 | 75.6 | 109
CC[C@H](C)[C@@H]1NC(=O)[C@H](Cc2ccccc2)NC(=O)[C@@H](NC(=O)[C@H](CCC(N)=O)NC(=O)[C@H](CCC(N)=O)NC(=O)[C@H](C)NC(=O)[C@H](CCCCNC(C)=O)NC(=O)[C@H](CCCCN)NC(=O)[C@H](CC(=O)O)NC(=O)[C@H](CC(C)C)NC(=O)[C@](C)(CC(C)C)NC(=O)[C@@H](NC(=O)[C@H](CO)NC(=O)[C@H](Cc2ccc(O)cc2)NC(=O)[C@H](CC(=O)O)NC(=O)[C@H](CO)NC(=O)[C@@H](NC(=O)[C@H](Cc2ccccc2)NC(=O)[C@@H](NC(=O)CNC(=O)[C@H](CCC(N)=O)NC(=O)C(C)(C)NC(=O)[C@@H](N)Cc2ccc(O)cc2)[C@@H](C)O)[C@@H](C)O)[C@@H](C)CC)CSCC(=O)NCCN(C(=O)CCC(=O)NCCOCCOCC(=O)NCCOCCOCC(=O)NCCCC[C@H](NC(=O)CCCCCCCCCCCCCCCCCCC(=O)O)C(=O)O)CCNC(=O)CSC[C@@H](C(=O)NCC(=O)NCC(=O)N2CCC[C@H]2C(=O)N[C@@H](CO)C(=O)N[C@@H](CO)C(=O)NCC(=O)N[C@@H](C)C(=O)N2CCC[C@H]2C(=O)N2CCC[C@H]2C(=O)N2CCC[C@H]2C(=O)N[C@@H](CO)C(N)=O)NC(=O)[C@H](CC(C)C)NC(=O)[C@H](CC(C)C)NC(=O)[C@H](Cc2ccc(O)cc2)NC(=O)[C@H](CCC(=O)O)NC1=O [TG33] (H-Y[Aib]QGTFTSDYSI[αMeL]LDKK(Ac)AQQCFIEYLLCGGPSSGAPPPS-NH2; linker 21-28 via X1) | 23.7 | 7.6 | 96.8
CC[C@H](C)[C@@H]1NC(=O)[C@H](Cc2ccccc2)NC(=O)[C@@H](NC(=O)[C@@H](C)NC(=O)[C@H](CCC(N)=O)NC(=O)[C@H](C)NC(=O)[C@H](CCCCNC(C)=O)NC(=O)[C@H](CCCCN)NC(=O)[C@H](CC(=O)O)NC(=O)[C@H](CC(C)C)NC(=O)[C@](C)(CC(C)C)NC(=O)[C@@H](NC(=O)[C@H](CO)NC(=O)[C@H](Cc2ccc(O)cc2)NC(=O)[C@H](CC(=O)O)NC(=O)[C@H](CO)NC(=O)[C@@H](NC(=O)[C@H](Cc2ccccc2)NC(=O)[C@@H](NC(=O)CNC(=O)[C@H](CCC(N)=O)NC(=O)C(C)(C)NC(=O)[C@@H](N)Cc2ccc(O)cc2)[C@@H](C)O)[C@@H](C)O)[C@@H](C)CC)CSCC(=O)NCCN(C(=O)CCC(=O)NCCOCCOCC(=O)NCCOCCOCC(=O)NCCCC[C@H](NC(=O)CCCCCCCCCCCCCCCCCCC(=O)O)C(=O)O)CCNC(=O)CSC[C@@H](C(=O)NCC(=O)NCC(=O)N2CCC[C@H]2C(=O)N[C@@H](CO)C(=O)N[C@@H](CO)C(=O)NCC(=O)N[C@@H](C)C(=O)N2CCC[C@H]2C(=O)N2CCC[C@H]2C(=O)N2CCC[C@H]2C(=O)N[C@@H](CO)C(N)=O)NC(=O)[C@H](CC(C)C)NC(=O)[C@H](CC(C)C)NC(=O)[C@H](Cc2ccc(O)cc2)NC(=O)[C@H](CCC(=O)O)NC1=O [TG31] (H-Y[Aib]QGTFTSDYSI[αMeL]LDKK(Ac)AQ[dA]CFIEYLLCGGPSSGAPPPS-NH2; linker 21-28 via X1) | 32.7 | 11.4 | 440
CC[C@H](C)[C@@H]1NC(=O)[C@H](Cc2ccccc2)NC(=O)[C@@H](NC(=O)C(C)(C)NC(=O)[C@H](CCC(N)=O)NC(=O)[C@H](C)NC(=O)[C@H](CCCNC(=N)N)NC(=O)[C@H](CCCCN)NC(=O)[C@H](CC(=O)O)NC(=O)[C@H](CC(C)C)NC(=O)[C@](C)(CC(C)C)NC(=O)[C@@H](NC(=O)[C@H](CO)NC(=O)[C@H](Cc2ccc(O)cc2)NC(=O)[C@H](CC(=O)O)NC(=O)[C@H](CO)NC(=O)[C@@H](NC(=O)[C@H](Cc2ccccc2)NC(=O)[C@@H](NC(=O)CNC(=O)[C@H](CCC(N)=O)NC(=O)C(C)(C)NC(=O)[C@@H](N)Cc2ccc(O)cc2)[C@@H](C)O)[C@@H](C)O)[C@@H](C)CC)CSCC(=O)NCCN(C(=O)CCC(=O)NCCOCCOCC(=O)NCCOCCOCC(=O)NCCCC[C@H](NC(=O)CCCCCCCCCCCCCCCCCCC(=O)O)C(=O)O)CCNC(=O)CSC[C@@H](C(=O)NCC(=O)NCC(=O)N2CCC[C@H]2C(=O)N[C@@H](CO)C(=O)N[C@@H](CO)C(=O)NCC(=O)N[C@@H](C)C(=O)N2CCC[C@H]2C(=O)N2CCC[C@H]2C(=O)N2CCC[C@H]2C(=O)N[C@@H](CO)C(N)=O)NC(=O)[C@H](CC(C)C)NC(=O)[C@H](CC(C)C)NC(=O)[C@H](Cc2ccc(O)cc2)NC(=O)[C@H](CCC(=O)O)NC1=O [TG35] | 40.1 | 15.5 | 273
CC[C@H](C)[C@@H]1NC(=O)[C@H](Cc2ccccc2)NC(=O)[C@@H](NC(=O)C(C)(C)NC(=O)[C@H](CCC(N)=O)NC(=O)[C@H](C)NC(=O)[C@H](CCCCNC(C)=O)NC(=O)[C@H](CCCCN)NC(=O)[C@H](CC(=O)O)NC(=O)[C@H](CC(C)C)NC(=O)[C@](C)(CC)NC(=O)[C@@H](NC(=O)[C@H](CO)NC(=O)[C@H](Cc2ccc(O)cc2)NC(=O)[C@H](CC(=O)O)NC(=O)[C@H](CO)NC(=O)[C@@H](NC(=O)[C@H](Cc2ccccc2F)NC(=O)[C@@H](NC(=O)CNC(=O)[C@H](Cc2c[nH]cn2)NC(=O)C(C)(C)NC(=O)[C@@H](N)Cc2c[nH]cn2)[C@@H](C)O)[C@@H](C)O)[C@@H](C)CC)CSCC(=O)NCCN(C(=O)CCC(=O)NCCOCCOCC(=O)NCCOCCOCC(=O)NCCCC[C@H](NC(=O)CCCCCCCCCCCCCCCCCCC(=O)O)C(=O)O)CCNC(=O)CSC[C@@H](C(=O)NCC(=O)NCC(=O)N2CCC[C@H]2C(=O)N[C@@H](CO)C(=O)N[C@@H](CO)C(=O)NCC(=O)N[C@@H](C)C(=O)N2CCC[C@H]2C(=O)N2CCC[C@H]2C(=O)N2CCC[C@H]2C(=O)N[C@@H](CO)C(N)=O)NC(=O)[C@H](CC(C)C)NC(=O)[C@H](CC(C)C)NC(=O)[C@H](Cc2ccc(O)cc2)NC(=O)[C@H](CCC(=O)O)NC1=O [TG66] (H-H[Aib]HGT[Phe(2-F)]TSDYSI[Iva]LDKK(Ac)AQ[Aib]CFIEYLLCGGPSSGAPPPS-NH2; linker 21-28 via X1) | 435 | 34.7 | 201
